Results on one compound are retold here after patent US20180353461A1, “USE OF CANNABINOIDS AS CERAMIDE-GENERATING ANTICANCER AGENTS IN TUMORS OF THE HEMATOPOIETIC AND LYMPHOID TISSUES” (priority 2014, published 2018).

Holding throughout (assay type): cell-based, human
In experiment [1] the test system is HL60 cells. Put plainly: Mitochondrial superoxide / ROS in HL60 cells (MitoSOX assay). The method, then: Mitochondrial membrane potential and superoxide detection Cells (10e6 cells per assay) were treated with a concentration of WIN-55 for 15, 30, 45 and 60 min at 37° C. Fluorochromes 10 μM TMRM [(tetramethylrhodamine-ethyl-ester-perchlorate), Santa Cruz Biotechnology Inc.] to detect membrane potential, or 5 μM MitoSOX [Molecular Probes (Invitrogen)] to detect mitochondrial superoxide, were added for the last 15 min of treatment. CCCP (uncoupler of oxidative phosphorylation) or H2O2 (oxidant agent) was used as a positive control of the techniques respectively (Labbe et al., 2008). The fluorescence detection of TMRM was measured for flow citometry. Fluorescent intensity was quantified and analyzed using Infinicyt™ Software (Cytognos, Salamanca, Spain).
The MitoSOX signal was detected using a ‘Fluoroscan’ multi-well plate reader (Thermo Labsystems, Thermo Scientific), excitation/emission maxima of 543/593 nm.
To delve into the processes that participate in cannabinoid-induced apoptosis, we evaluated the potential of mitochondrial membrane potential in HL60 cells after treatment with WIN-55, at indicated times, using TMRE assay by flow citometry. We observed that cannabinoids induced a drop of Δψm in HL60 cells (FIG. 20a). The loss of potential started as early as 15 min after exposure to the cannabinoid, and continued decreasing over time. […]

The subject of experiment [2] is HL60 cells. Nature of the experiment: Western blot of ER-stress regulator proteins in HL60 cells. To be noted: HL60, WIN-55 50 uM. The procedure:
FIG. 19. […] Expression analysis by Western blot of regulator proteins of ER-stress in HL60 cells treated with WIN-55 50 uM.
Extracted proteins (15-25 ug/well) were separated by sodium dodecyl sulfate-polyacrylamide gel electrophoresis (SDS/PAGE) in pre-cast polyacrylamide gels AnykD (Bio-Rad Laboratories, Hercules, Calif., USA) under reducing and denaturing conditions. Electrophoretic run was performed at a constant current of 15 mA per gel in a Mini-Protean® Tetra Cell (Bio-Rad Laboratories) and were electrophoretically transferred onto PVDF membranes using Trans-Blot® Turbo™ System (Bio-Rad Laboratories). Blocking was performed with 2% bovine serum albumin [(BSA), Santa Cruz Biotechnology] in Tween-Tris buffer saline (TTBS). Membranes were incubated overnight at 4° C. with corresponding primary antibody in TTBS.
On the technique in general: A western blot detects proteins with antibodies after separation by electrophoresis.

In experiment [3] the test system is U266 cells. Nature of the experiment: SPT expression, ceramide staining and SPT inhibition in U266 cells. The procedure: Except if otherwise indicated, for the viability assays primary cells were incubated 18 hours, with vehicle (with <0.15% DMSO) or cannabinoid. Meanwhile, the time course assays cells were performed at 0, 2, 6, 18 and 24 h. For the analysis of SPT activity, cells were co-incubated for the first 6 hours with the SPT inhibitor, myriocin, and the cannabinoid, WIN-55 or JWH-133.
Samples (15-25 ug/lane) were subjected to SDS/PAGE in pre-cast polyacrylamide gels AnykD (Bio-Rad Laboratories, Hercules, CA, USA) under reducing and denaturing conditions. Electrophoretic run was performed at a constant current of 15 mA per gel in a Mini-Protean® Tetra Cell (Bio-Rad Laboratories). Once proteins were separated by electrophoresis, were transferred onto PVDF membranes using Trans-Blot® Turbo™ System (Bio-Rad Laboratories). Electrotransference was conducted at constant amperage of 1.2 mA and at up to 25 V of voltage. The blotted membranes were then blocked with 2% bovine serum albumin [(BSA), Santa Cruz Biotechnology] in Tween-Tris buffer saline (TTBS) for 30 min with gentle agitation, and incubated overnight at 4° C. with corresponding primary antibody in TTBS. After twice washing with TTBS, membranes were incubated for 1-2 h at room temperature with suitable conjugated-HRP secondary antibody, and subjected to chemiluminescence detection using Western Blotting Luminol Reagent (Santa Cruz Biotechnology). Loading controls were carried out with an anti-beta-actin and anti-beta-tubulin antibodies (Sigma-Aldrich). Blots were captured using a digital imaging system ImageQuant LAS 4000 (Amersham GE Healthcare) and transferred to a digital image processing software to analyze (Adobe Photoshop CS2, version 9.0., Adobe Systems Inc., San Jose, Calif.).
After cannabinoids and/or antagonists or SPT inhibitor treatment, primary cells and cell lines were washed with PBS, collected and placed on slides (Menzel-Glaser, Thermo Fisher Scientific). Cells were fixed in cold 4% paraformaldehyde for 10 min, treated with sodium borohydride and, permeabilized in 0.02% Triton X-100 in PBS with 10% normal donkey serum for blocking. Then, cells were incubated with the anti-CB1 or anti-CB2 receptor antibodies, anti-active-caspase3, anti-ceramide in blocking buffer overnight at 4° C. in a humid chamber (Simport, Beloeil, QC, Canada). After washing with PBS, samples were further incubated for 90 min with Alexa 647- or Alexa 488—conjugated donkey secondary antibody. After twice washing, first with PBS and then with 50 mM Tris-HCl (pH 7.4), and were dipped in a solution of Sudan Black B (Sigma-Aldrich) in 70% methanol for 5 min. After immunocytochemistry, slides were mounted using Fluoromount Aqueous Mounting Medium (Sigma-Aldrich). Preparations were examined with an Olympus BX-61 microscope (Olympus, Hamburg, Germany) equipped with appropriate filters: FITC/Cy2 (green fluorophores) 460-490 nm bandpass excitation filter and 510-550 nm bandpass emission filter; rhodamine/Cy3 (red fluorophores) 541-551 nm excitation and 572-607 nm emission; and Cy5 (deep red fluorophore) 615-635 nm excitation and 655 nm longpass emission. Digital images were acquired with CellSens Dimension Software (Olympus) and contrasted with Photoshop CS2 Software (Adobe Systems Inc). […]
De novo synthesis of ceramides contribute to the apoptotic process triggered by cannabinoids. […] To this end, we analyzed the expression of serine palmitoyltransferase (SPT), the enzyme that catalyses the rate-limiting step of ceramide synthesis de novo. […]

Structures are written as SMILES.

Consider `CS(=O)(=O)O.Cc1c(C(=O)c2cccc3ccccc23)c2cccc3c2n1[C@H](CN1CCOCC1)CO3` [WIN-55, (R)-(+)-[2,3-dihydro-5-methyl-3-(4-morpholinylmethyl)-pyrrolo-[1,2,3]-1,4-benzoxazin-6-yl]-1-naphthalenylmethanone mesylate], for which the “ROS by MitoSOX assay” value in experiment [1] is recorded as “increase”. Further, the “ER-stress in AML cells” value in experiment [2] is “increase the ER-stress”. For the same compound, in experiment [3] (U266), the “SPT, 2 h after exposure” value was “moderate increase” and the “time at which SPT reached the maximal level” value came to 18 h. Also, the “ceramide by immunohistochemistry, compared to untreated cells” value in experiment [3] (U266, 50 uM, 18 hours) is given as “remarkable increase”. Besides, the “SPT expression level in myelomatous cells” value in experiment [3] (U266, WIN-55 50 uM) is “enhanced”.
